# Results from patent US8076487B2, “Pyridone derivative and herbicide” (Kumiai Chemical Industry Co., Ltd., priority 2006, dated 2011).
# Assays:
# Format in all cases: in vivo
# [1] = test system: early watergrass (Echinochloa oryzicola Vasing); assay: Test Example 1: herbicidal effect by soil application to paddy field; conditions: paddy field soil application; active ingredient 1,000 g per 1 hectare; wettable powder added dropwise to water surface the day after sowing; examined on the 21st day after application
# In short: (§1)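 Under greenhouse conditions, seeds sown on puddled paddy soil in 100 cm2 pots under 3 cm of standing water received the test compound; injury was assessed with a standard scoring scheme three weeks (day 21) after treatment.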
# [2] = test system: Japanese bulrush (Scirpus juncoides Roxb.); assay: as above; conditions: paddy field soil application; active ingredient 1,000 g per 1 hectare; wettable powder added dropwise to water surface the day after sowing; examined on the 21st day after application
# In short: as §1
# [3] = test system: heartshape false pickerelweed (Monochoria vaginalis (Burm.f.) C.Presl); assay: as above; conditions: paddy field soil application; active ingredient 1,000 g per 1 hectare; wettable powder added dropwise to water surface the day after sowing; examined on the 21st day after application
# In short: as §1
# [4] = test system: green foxtail (Setaria viridis (L.) P. Beauv.); assay: Test Example 2: herbicidal effect by soil application to upland field; conditions: soil surface spray, upland field soil, 1,000 g active ingredient per hectare, 21st day after application
# Protocol: (§2) [table] Test Example 2 Test on Herbicidal Effect by Soil Application to Upland field In a 80 cm2 plastic pot, field soil was filled. Seeds of barnyardgrass (Echinochloa crus-galli (L.) P. Beauv. var. crus-galli), green foxtail (Setaria viridis (L.) P. Beauv.), velvetleaf (Abutilon theophrasti medicus), and slender amaranth (Amaranthus viridis L.) were sown and covered with soils. The wettable powder prepared according to Formulation Example 1 was diluted in water and a 1,000 liter equivalent amount per 1 hectare so that the active ingredient becomes 1,000 g per 1 hectare was uniformly sprayed on a soil surface using a small sprayer. Then, on the 21st day after the application to the plants grew in a greenhouse, the herbicidal effect was examined in accordance with a standard shown in Table 34.
# [5] = test system: slender amaranth (Amaranthus viridis L.); assay: as above; conditions: soil surface spray, upland field soil, 1,000 g active ingredient per hectare, 21st day after application
# Protocol: as §2
# [6] = test system: velvetleaf (Abutilon theophrasti medicus); assay: as above; conditions: soil surface spray, upland field soil, 1,000 g active ingredient per hectare, 21st day after application
# Protocol: as §2
# [7] = test system: barnyardgrass (Echinochloa crus-galli (L.) P. Beauv. var. crus-galli); assay: as above; conditions: soil surface spray, upland field soil, 1,000 g active ingredient per hectare, 21st day after application
# Protocol: as §2
SMILES,"herbicidal effect, Echinochloa oryzicola Vasing [1]","herbicidal effect, Scirpus juncoides Roxb. [2]","herbicidal effect, Monochoria vaginalis (Burm. f.) C. Presl [3]","herbicidal effect (index), Green Foxtail [4]","herbicidal effect (index), Slender Amaranth [5]","herbicidal effect (index), Velvetleaf [6]","herbicidal effect (index), Barnyardgrass [7]"
CCCS(=O)(=O)Oc1c(C(=O)c2ccc(C(F)(F)F)n(CCS(C)(=O)=O)c2=O)cnn1C [IV-55],4 (70 to less than 90% of herbicidal effect and crop phytotoxicity),4 (70 to less than 90% of herbicidal effect and crop phytotoxicity),5 (90% or more of herbicidal effect and crop phytotoxicity),5 (90% or more of herbicidal effect and crop phytotoxicity),5 (90% or more of herbicidal effect and crop phytotoxicity),4 (70 to less than 90% of herbicidal effect and crop phytotoxicity),5 (90% or more of herbicidal effect and crop phytotoxicity)
CCCS(=O)(=O)Oc1c(C(=O)c2ccc(C(F)(F)F)n(-c3ccc([N+](=O)[O-])cc3)c2=O)cnn1C [IV-68],4 (70 to less than 90% of herbicidal effect and crop phytotoxicity),4 (70 to less than 90% of herbicidal effect and crop phytotoxicity),5 (90% or more of herbicidal effect and crop phytotoxicity),4 (70 to less than 90% of herbicidal effect and crop phytotoxicity),5 (90% or more of herbicidal effect and crop phytotoxicity),5 (90% or more of herbicidal effect and crop phytotoxicity),4 (70 to less than 90% of herbicidal effect and crop phytotoxicity)
CCCS(=O)(=O)Oc1c(C(=O)c2ccc(C(F)(F)F)n(-c3cc(F)cc(F)c3)c2=O)c(C)nn1C [IV-82],5 (90% or more of herbicidal effect and crop phytotoxicity),3 (50 to less than 70% of herbicidal effect and crop phytotoxicity),5 (90% or more of herbicidal effect and crop phytotoxicity),4 (70 to less than 90% of herbicidal effect and crop phytotoxicity),4 (70 to less than 90% of herbicidal effect and crop phytotoxicity),5 (90% or more of herbicidal effect and crop phytotoxicity),5 (90% or more of herbicidal effect and crop phytotoxicity)
CCCS(=O)(=O)Oc1c(C(=O)c2ccc(C(F)(F)F)n(-c3ccc(F)c(F)c3)c2=O)cnn1C [IV-87],5 (90% or more of herbicidal effect and crop phytotoxicity),5 (90% or more of herbicidal effect and crop phytotoxicity),5 (90% or more of herbicidal effect and crop phytotoxicity),5 (90% or more of herbicidal effect and crop phytotoxicity),5 (90% or more of herbicidal effect and crop phytotoxicity),5 (90% or more of herbicidal effect and crop phytotoxicity),5 (90% or more of herbicidal effect and crop phytotoxicity)
CCCS(=O)(=O)Oc1c(C(=O)c2ccc(C(F)(F)F)n(-c3ccc(F)c(F)c3)c2=O)c(C)nn1C [IV-88],5 (90% or more of herbicidal effect and crop phytotoxicity),4 (70 to less than 90% of herbicidal effect and crop phytotoxicity),5 (90% or more of herbicidal effect and crop phytotoxicity),5 (90% or more of herbicidal effect and crop phytotoxicity),5 (90% or more of herbicidal effect and crop phytotoxicity),5 (90% or more of herbicidal effect and crop phytotoxicity),5 (90% or more of herbicidal effect and crop phytotoxicity)
CC(=O)Oc1c(C(=O)c2ccc(C(F)(F)F)n(-c3cc([N+](=O)[O-])ccc3F)c2=O)cnn1C [IV-89],4 (70 to less than 90% of herbicidal effect and crop phytotoxicity),4 (70 to less than 90% of herbicidal effect and crop phytotoxicity),5 (90% or more of herbicidal effect and crop phytotoxicity),4 (70 to less than 90% of herbicidal effect and crop phytotoxicity),4 (70 to less than 90% of herbicidal effect and crop phytotoxicity),5 (90% or more of herbicidal effect and crop phytotoxicity),5 (90% or more of herbicidal effect and crop phytotoxicity)
CCCS(=O)(=O)Oc1c(C(=O)c2ccc(C(F)(F)F)n(-c3ccc(F)c(COC)c3)c2=O)cnn1C [IV-94],5 (90% or more of herbicidal effect and crop phytotoxicity),5 (90% or more of herbicidal effect and crop phytotoxicity),5 (90% or more of herbicidal effect and crop phytotoxicity),4 (70 to less than 90% of herbicidal effect and crop phytotoxicity),5 (90% or more of herbicidal effect and crop phytotoxicity),5 (90% or more of herbicidal effect and crop phytotoxicity),5 (90% or more of herbicidal effect and crop phytotoxicity)
Cn1ncc(C(=O)c2ccc(C(F)(F)F)n(CC3CCCO3)c2=O)c1OC(=O)c1ccccc1 (stereo not drawn) [IV-131],5 (90% or more of herbicidal effect and crop phytotoxicity),5 (90% or more of herbicidal effect and crop phytotoxicity),5 (90% or more of herbicidal effect and crop phytotoxicity),3 (50 to less than 70% of herbicidal effect and crop phytotoxicity),5 (90% or more of herbicidal effect and crop phytotoxicity),4 (70 to less than 90% of herbicidal effect and crop phytotoxicity),4 (70 to less than 90% of herbicidal effect and crop phytotoxicity)
Cn1ncc(C(=O)c2ccc(C(F)(F)F)n(CC3CCCO3)c2=O)c1OC(=O)c1c(Cl)cc(Cl)cc1Cl (stereo not drawn) [IV-133],5 (90% or more of herbicidal effect and crop phytotoxicity),5 (90% or more of herbicidal effect and crop phytotoxicity),5 (90% or more of herbicidal effect and crop phytotoxicity),3 (50 to less than 70% of herbicidal effect and crop phytotoxicity),5 (90% or more of herbicidal effect and crop phytotoxicity),4 (70 to less than 90% of herbicidal effect and crop phytotoxicity),5 (90% or more of herbicidal effect and crop phytotoxicity)
